The text below walks through data of US5552441A, “Leukotriene B4 antagonists” (Eli Lilly and Company, priority 1994, dated 1996).

Assay [1] addresses [^3 H]-LTB4 binding to guinea pig lung membranes (Cavia porcellus, UniProt H0VYV8). Kind of assay: Inhibition of [^3 H]LTB4 Binding to Guinea Pig Lung Membranes. The conditions noted are these: approximately 140 pM [^3 H]-LTB4, 45 minutes at 30° C., pH 6.5, mean -log Ki, read-out: Inhibition of [^3 H]LTB4 Binding to Guinea Pig Lung Membranes pKi (converted).
Assay [2] addresses leukotriene B4 specific receptor on the membrane of human neutrophils (Homo sapiens, UniProt Q15722). Kind of assay: biochemical. The conditions noted are these: 0.1-0.2 nM ^3 H-LTB4, 10 minutes at 4° C., read-out: Inhibition of [^3 H]LTB4 Binding to Human Neutrophils IC50. The procedure: The effectiveness of compounds to inhibit the binding of leukotriene B4 to a specific receptor on the membrane of human neutrophils was measured by using an adaptation of a radio-ligand binding assay developed by Goldman and Goetzl, J. Immunol., 129, 1600 (1982). Other investigators have developed similar assays (see, e.g., Kreisle, et al., J. Exp. Med., 157, 628 (1983) and Lin, et al., Prostaglandins, 28, 837 (1984)).
Cells used in the assay were isolated by standard techniques of centrifugation on Ficoll-Hypaque, dextran 70 sedimentation and hypotonic lysis. The following procedure was used. Freshly-prepared buffy coat layers from two individuals were obtained from a local blood donor center. The cells were mixed and diluted to 484 ml with phosphate buffered saline containing heparin (10 units/ml) and heat-inactivated calf serum (5%). This was divided into 20 ml aliquots and the aliquots layered on top of Ficoll-Paque (12 ml). The material was then centrifuged at 500 g for 40 minutes at room temperature. The resulting upper layer of platelets and mononuclear cells was discarded. The lower layer containing erythrocytes and neutrophils was retained. Buffer was added (1 ml per 4 ml of lower layer) and the suspension mixed. For each milliliter of this mixture, 0.33 ml of 6% Macrodex was added. After stirring the cells were allowed to sediment for 1 hour at 37° C. The resulting erythrocyte pellet was discarded and the neutrophil enriched supernatant fluid centrifuged at 500 g for 10 minutes at 4° C. […] Subsequently, the volume was made up to 50 ml by addition of ice-cold buffer and the cells resuspended. The suspension was then centrifuged at 300 g for 10 minutes at 4° C. […] This buffer consisted of Hanks' balanced salt solution and 0.1% ovalbumin (pH 7.3).
The amount of bound ^3 H-LTB4 was then measured and compared with the amount bound in the absence of test compound. The assay was carried out in microcentrifuge tubes by adding first 10 μl test compound dissolved in DMSO, followed by adding 20 μl ^3 H-LTB4 diluted in assay buffer, and finally adding 500 μl of the cell suspension. At the end of the 10 minutes incubation, 300 μl of a mixture of dibutyl and dinonyl phthalate (7:2) were added and the tubes centrifuged for 2 minutes in a microcentrifuge. The radioactivity bound to the cell pellet was measured by scintillation spectroscopy.

SMILES strings stand for the structures. Where a name gives a salt, the structure may show the parent alone.

Chain of leukotriene B4 specific receptor on the membrane of human neutrophils (Q15722 whole entry): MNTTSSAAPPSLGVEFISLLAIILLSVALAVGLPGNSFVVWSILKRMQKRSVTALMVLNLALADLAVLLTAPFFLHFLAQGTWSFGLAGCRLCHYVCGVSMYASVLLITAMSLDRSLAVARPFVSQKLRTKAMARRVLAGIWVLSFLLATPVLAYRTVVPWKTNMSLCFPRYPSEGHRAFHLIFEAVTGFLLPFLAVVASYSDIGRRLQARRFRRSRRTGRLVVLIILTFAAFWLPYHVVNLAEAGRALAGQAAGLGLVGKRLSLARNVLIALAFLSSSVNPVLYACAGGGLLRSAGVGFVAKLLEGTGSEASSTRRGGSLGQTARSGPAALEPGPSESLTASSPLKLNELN
Chain of [^3 H]-LTB4 binding to guinea pig lung membranes (H0VYV8 1-348): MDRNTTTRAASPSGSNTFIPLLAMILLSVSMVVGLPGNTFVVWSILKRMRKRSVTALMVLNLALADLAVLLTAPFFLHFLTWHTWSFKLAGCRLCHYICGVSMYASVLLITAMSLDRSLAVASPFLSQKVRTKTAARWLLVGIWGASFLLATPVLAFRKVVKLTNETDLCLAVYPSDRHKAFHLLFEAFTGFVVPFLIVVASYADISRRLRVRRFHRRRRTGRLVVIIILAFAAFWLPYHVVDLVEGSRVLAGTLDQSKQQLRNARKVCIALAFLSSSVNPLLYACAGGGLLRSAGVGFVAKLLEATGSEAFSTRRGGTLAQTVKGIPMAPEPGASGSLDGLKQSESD

In the case of `CCCc1c(OCCCOc2cc(O)c(C(C)=O)cc2CC)ccc2c1OC(C(=O)O)CC2` (centres unmarked) [Example 1, 7-[3-(4-acetyl-2-ethyl-5-hydroxyphenoxy)propoxy]-3,4-dihydro-8-propyl-2H-1-benzopyran-2-carboxylic acid], the Ki in assay [1] is 0.00813 µM.

Take `CCCc1c(OCCCOc2cc(O)c(C(C)=O)cc2CC)cccc1OCC(=O)O` [Example 3, 2-[2-propyl-3-[[3-(4-acetyl-2-ethyl-5-hydroxyphenoxy)proyl]oxy]phenoxy]acetic acid]: the IC50 in assay [2] came out at 0.067 µM. The Ki in assay [1] was 0.00479 µM. As to `CCCc1c(OCCCOc2cc(O)c(C(C)=O)cc2CC)cccc1OC(C)C(=O)O` (centres unmarked) [Example 4, 2-[3-[3-(4-acetyl-2-ethyl-5-hydroxyphenoxy)propoxy)-2-propylphenoxy]propanoic acid], the IC50 in assay [2] was 0.023 µM. In addition, the Ki in assay [1] was 0.0151 µM. `CCCc1c(OCCCOc2cc(O)c(C(C)=O)cc2CC)cccc1OC(CC)C(=O)O` (centres unmarked) [Example 5, 2-[3-[3-(4-acetyl-2-ethyl-5-hydroxyphenoxy)propoxy)-2-propylphenoxy]butanoic acid]: the Ki in assay [1] is 0.0138 µM.

Take `CCCc1c(OCCCOc2cc(O)c(C(C)=O)cc2CC)c(I)cc2c1OC(C(=O)O)CC2` (centres unmarked) [Example 6, 6-iodo-8-propyl-7-[3-[4-acetyl-2-ethyl-5-hydroxyphenoxy)propoxy]-3,4-dihydro-2H-1-benzopyran-2-caroxylic acid]: in assay [2], the IC50 is 0.327 µM. Moreover, the Ki in assay [1] was 0.0257 µM. Consider `CCc1cc(C(C)=O)c(O)cc1OCCCOc1ccc2c(=O)c3cc(C(=O)O)ccc3oc2c1` [Example 7, 6-[3-(4-acetyl-2-ethyl-5-hydroxyphenoxy)propoxy]-9-oxo-9H-xanthene-2-carboxylic acid disodium salt sesquihydrate], for which the half-inhibitory concentration (IC50) in assay [2] came out at 0.19 µM. The Ki in assay [1] was 0.741 µM. The matching figures for `CCc1cc(C(C)=O)c(O)cc1OCCCOc1ccc2oc3ccccc3c2c1CCC(=O)O` [Example 8, 3-[1-[2-[3-(4-acetyl-2-ethyl-5-hydroxyphenoxy)propoxy]dibenzofuran]]propanoic acid disodium salt]: 0.043 µM and 0.00204 µM. With `CCCc1cc(Oc2cccc(C(=O)O)c2)ccc1OCCCOc1cc(O)c(C(C)=O)cc1CC` [Example 9, 3-[3-propyl-4-[3-(4-acetyl-2-ethyl-5-hydroxyphenoxy)propoxy]phenoxy]benzoic acid disodium salt], the IC50 in assay [2] worked out at 0.158 µM. Moreover, the Ki in assay [1] was 0.257 µM. For the compound `CCc1cc(C(C)=O)c(O)cc1OCCCOc1ccc(-c2ccccc2)cc1CCC(=O)O` [Example 11, 3-[1-[5-phenyl-2-[3-(4-acetyl-2-ethyl-5-hydroxyphenoxy)propoxy]phenyl]]propanoic acid disodium salt], the IC50 in assay [2] was 0.115 µM. For the same compound, the Ki in assay [1] was 0.0282 µM.

Turning to `CCc1cc(C(C)=O)c(O)cc1OCCCOc1cccc(Oc2ccccc2C(=O)O)c1` [Example 13, 2-[3-[3-(4-acetyl-2-ethyl-5-hydroxyphenoxy)propoxy]phenoxy]benzoic acid disodium salt hemihydrate], the IC50 in assay [2] is 0.291 µM. The Ki in assay [1] is 0.182 µM. As for `CCc1cc(C(C)=O)c(O)cc1OCCCOc1cccc(Oc2cccc(C(=O)O)c2)c1` [Example 14, 3-[3-[3-(4-acetyl-2-ethyl-5-hydroxyphenoxy)propoxy]phenoxy]benzoic acid disodium salt hemihydrate], the IC50 in assay [2] amounted to 0.456 µM. Also, the Ki in assay [1] was 0.174 µM.

Take `CCc1cc(C(C)=O)c(O)cc1OCCCOc1ccc2c(=O)c3cc(C(=O)O)ccc3oc2c1CCC(=O)O` [Example 15, 3-[4-[7-carboxy-3-[3-(4-acetyl-2-ethyl-5-hydroxyphenoxy)propoxy]-9-oxo-9H-xanthene]]propanoic acid trisodium salt trihydrate]: the Ki in assay [1] was 0.000977 µM. Take `CCc1cc(C(C)=O)c(O)cc1OCCCOc1ccc2ccc(OCC(=O)O)cc2c1` [Example 16, [2-[7-[3-(4-Acetyl-2-ethyl-5-hydroxyphenoxy)propoxy]naphthalenyl]oxy]acetic acid sodium salt hydrate]: the IC50 in assay [2] was 0.409 µM. Moreover, the Ki in assay [1] is 0.117 µM.

For `CCCc1c(OCCCOc2cc(O)c(C(C)=O)cc2CC)cccc1OCc1ccccc1C(=O)O` [Example 17, 2-[[3-[3-(4-acetyl-2-ethyl-5-hydroxyphenoxy)propoxy]-2-propylphenoxy]methyl]benzoic acid disodium salt hemihydrate], the IC50 in assay [2] came to 0.127 µM. The Ki in assay [1] was 0.17 µM.

`CCCc1c(OCCCCOc2cc(O)c(C(C)=O)cc2CC)cccc1Oc1ccccc1C(=O)O` [Example 18, 2-[3-[4-(4-Acetyl-2-ethyl-5-hydroxyphenoxy)butoxy]-2-propyl-phenoxy]benzoic acid disodium salt]: in assay [2], the IC50 amounted to 0.094 µM. Further, in assay [1], the Ki was 0.0537 µM. Consider `CCCc1c(OCCCOc2cc(O)c(C(C)=O)cc2CC)cccc1Oc1ccccc1C(=O)O` [Example 19, 2-[3-[3-(4-Acetyl-2-ethyl-5-hydroxyphenoxy)propoxy]-2-propylphenoxy]benzoic acid disodium salt hydrate], for which, in assay [2], the IC50 was determined as 0.024 µM. Further, the Ki in assay [1] is 0.0347 µM. The matching figures for `CCc1cc(C(C)=O)c(O)cc1OCCCOc1ccc(C(=O)c2cccc(C(=O)O)c2)cc1CCC(=O)O` [Example 20, 3-[1-[2-[3-(4-acetyl-2-ethyl-5-hydroxyphenoxy)propoxy]-5-(3-carboxybenzoyl)phenyl]]propanoic acid trisodium salt hydrate]: 0.046 µM and 0.00661 µM. For the compound `CCCc1cc(Oc2ccc(C(=O)O)cc2)ccc1OCCCOc1cc(O)c(C(C)=O)cc1CC` [sodium salt hydrate], the concentration for half-maximal inhibition (IC50) in assay [2] is 0.326 µM. Besides, the Ki in assay [1] is 1 µM.

Regarding `CCc1cc(C(C)=O)c(O)cc1OCCCOc1ccc(Oc2ccc(C(=O)O)cc2)cc1` [sodium salt hydrate], the IC50 in assay [2] came to 0.193 µM. For the same compound, the Ki in assay [1] is 0.132 µM.

By IC50 is commonly meant the concentration that gives 50% inhibition.
